Measured values as given in patent US20110034441A1, “INDAZOLES AS WNT/B-CATENIN SIGNALING PATHWAY INHIBITORS AND THERAPEUTIC USES THEREOF” (EPITHERIX, LLC, priority 2009, published 2011).

Test system: Wnt
Experiment: Wnt reporter screening assay: SP5 promoter (TCF/LEF) firefly luciferase in SW480 cells
Format: cell-based
Conditions: SW480 colon cancer cells with SP5 promoter luciferase reporter; 24 hours after compound addition; normalized to DMSO; read-out: Wnt inhibition, IC50
Source text: Another screening assay for Wnt activity is described as follows. Reporter cell lines can be generated by stably transducing cells of cancer cell lines (e.g., colon cancer) with a lentiviral construct that include a wnt-responsive promoter driving expression of the firefly luciferase gene.
Lentiviral constructs can be made in which the SP5 promoter, a promoter having eight TCF/LEF binding sites derived from the SP5 promoter, is linked upstream of the firefly luciferase gene. The lentiviral constructs can also include a hygromycin resistance gene as a selectable marker. The SP5 promoter construct can be used to transduce SW480 cells, a colon cancer cell line having a mutated APC gene that generates a truncated APC protein, leading to de-regulated accumulation of β-catenin.
Cultured SW480 cells bearing a reporter construct can be distributed at approximately 10,000 cells per well into 384 well multiwell plates. Compounds from a small molecule compound library can then be added to the wells in half-log dilutions using a three micromolar top concentration. A series of control wells for each cell type receive only buffer and compound solvent. Twenty-four hours after the addition of compound, reporter activity for luciferases can be assayed, for example, by addition of the BrightGlo luminescence reagent (Promega) and the Victor3 plate reader (Perkin Elmer). Readings can be normalized to DMSO only treated cells, and normalized activities can then be used in the IC50 calculations.

N-ethyl-4-methyl-5-(3-(4-(4-methyl-1H-imidazol-1-yl)-1H-benzo[d]imidazol-2-yl)-1H-indazol-5-yl)nicotinamide [Compound 43]
IC50: 77 to 96 nM
